Data set [1] relates to human embryoid bodies (hEBs). Kind of data set: Morphological evaluation of embryoid bodies (photomicrographs). The class given is cell-based. Particulars: for morphology of treated hEBs compared to controls: day 7, 10 μg/ml (FIG. 4E-c, 4F-c); for concentration required to elicit a similar morphological response (loss of compactness, decreased EB size): day 7 hEBs, FIG. 4A-4D. On the procedure:
Hanging drops were made in hES media with LIF and bFGF for calculating IC50-hES cells, and in hES media without LIF and bFGF (hEB media) for the formation of EBs. On day 3 the hES colonies were collected along with the respective test compound concentration, whereas the hEBs were collected and transferred to 60 mm bacteriological petri plates for another 2 days. Morphology of the EBs was monitored under the microscope for the formation of EBs. On day 5 the hEBs were plated in a 96 well plate for MTT, as well as on a 6 well plate for RNA extraction. The media along with the appropriate test compound concentration was replaced in the 96 well and 6 well plates on days 7, 9, 11, and 13. On day 15, MTT was performed on the hES plate and the differentiated EBs. RNA was extracted from all the concentrations of 5-fluorouracil, and 1 μg of RNA was converted to cDNA to perform RT-PCR, real time PCR, or TLDA.

For data set [2], the system named is human embryoid bodies (hEB). The data set is described as follows: Cytotoxicity in human embryoid bodies, day 15 (MTT / CyQUANT). Conditions: for IC50: Homo sapiens. How it is done: In general, the presently disclosed embryotoxicity testing protocols comprise the following sequence of steps. Studies using embryoid bodies generally comprise: a) preparation of various concentrations of test solutions in culture medium or a desired solvent; b) preparation of a cell suspension by enzymatic digestion of human embryonic stem cell colonies; c) culturing the cell suspension for formation of embryoid bodies in the presence and absence of one or more test solutions, and incubation for several days (e.g., three days) in hanging drops; d) cultivation of the embryoid bodies in bacteriological petri dishes for several days (e.g., two days) under controlled conditions; e) transfer of the embryoid bodies into 96 well plates and incubation for several days (e.g., 10 days) in the presence of one or more test solutions; and f) detection of the viability of the embryoid bodies after 15 days by MTT assay, or fluorescent or luminescent method, and isolation of RNA for studying gene expression. Studies using human foreskin fibroblasts (HFF) generally comprise: a) preparation of various concentrations of test solutions in culture medium or a desired solvent; b) plating of HFF cells in 96 well plates in the presence or absence of one or more test solutions for 15 days, changing the media and test solutions every 2 days; and c) detection of the viability of HFF after 15 days by MTT assay, or fluorescent or luminescent method. Studies using human embryonic stem cells generally comprise: a) preparation of various concentrations of test solutions in culture medium or a desired solvent; b) preparation of hES colonies by manual passage in the presence and absence of one or more test solutions, and incubation for 15 days on matrigel coated plates changing the media and test solutions every 2 days; c) disruption of the colonies after 15 days with enzymes to form single cells; d) labeling of single cells with a fluorescently-labeled dye, such as propidium iodide (“PI”); and e) detection of the percentage viability with FACS as a measure of cytotoxicity.
The culturing of the cell suspension is done by dispensing about ¼ of the cell suspension along with test chemicals on the inner side of a 100 mm bacteriological petri dish. Around 50-80 drops are dispensed for each concentration, the untreated control, and the solvent control. The lid is turned carefully into its regular position and is put on top of a petri dish containing 5 ml of phosphate buffered saline (“PBS”). The “hanging drops” are incubated for three days in a humidified atmosphere with 5% CO2 at 37° C.
On day 3, 5 ml of freshly prepared test solution is added to the lid of the “hanging drops” petri dish. The embryoid bodies are carefully transferred from the lid of the “hanging drops” petri dish to a 60 mm bacteriological petri dish. The suspension is cultivated for two days in a humidified atmosphere with 5% CO2 at 37° C.
On the 5th day, the EBs are transferred into 96 well plates by placing 10 EBs in each well. About 150 μl of freshly prepared test solution is added to each well, and three wells are used for each concentration. The 96 well plates are incubated for […] in a humidified atmosphere with 5% CO2 at 37° C. The remaining EBs are plated on a 24 well plate coated with 0.2% gelatin and allowed to differentiate. Media was replaced every second day until day 15.
On the 15th day, an MTT assay is performed. MTT solution (5 mg/ml) is prepared in culture medium containing test chemical. The MTT solution is added to all wells and incubated at 37° C. in a humidified atmosphere of 5% CO2 for 4 hours, after which the MTT desorb solution (acidified isopropanol) is added to each well. The plate is shaken on a micrometer plate for 15 minutes to dissolve the formazan. The absorbance is measured at 550-570 nm in a microtiter plate reader using 630 nm as a reference wavelength.

Values after ≈ are worked out from the molar mass of the structure shown. Read-outs that look alike come from different tables or passages of the source.

What is called IC50 is the midpoint of a concentration-inhibition curve.

For the compound `O=c1[nH]cc(F)c(=O)[nH]1` [5-Fluorouracil, 5-fluorouracil], the “morphology of 5 day old EBs compared to control” value in data set [1] (1 μg/ml, day 5, FIG. 2A) is reported as “significant change in the morphology”. Also, the “survival of hEBs until day 15” value in data set [2] (1 μg/ml (highest dose)) is on record as “did not survive until day 15”. Also, the IC50 in data set [2] (360 h, read-out: IC50-hEB) was determined as 0.00114 µg/mL (≈ 0.00873 µM). The “effect on cell viability” value in data set [2] (hEBs, 0.01 μg/ml, FIG. 3A) is recorded as “significant effect”. Also, the survival percentage in data set [2] (hEBs, 1 μg/ml, day 15, FIG. 3A) is on record as 7%.
For the compound `CS(=O)(=O)OCCCCOS(C)(=O)=O` [Busulfan, busulfan], the “morphology of treated hEBs compared to controls” value in data set [1] is “loss of compactness and a decrease in the size of the EBs”. Moreover, the IC50 in data set [2] (360 h, read-out: IC50-hEB) amounted to 0.38 ± 0.03 µg/mL (≈ 1.54 µM); in data set [2] (read-out: IC50-hEBs), 0.38 µg/mL (≈ 1.54 µM). The compound also returned a cell survival in data set [2] (hEBs, 1 μg/ml, CyQUANT, FIG. 4E) of 30%.
Take `Cn1c(=O)c2c(ncn2C)n(C)c1=O` [Caffeine, caffeine]: the “morphology of 5 day old EBs” value in data set [1] (increasing dose (50 and 500 μg/ml), day 5, FIG. 2B) was “significant darkening of the cells”. Besides, the IC50 in data set [2] (360 h, read-out: IC50-hEB) stood at 81.6 ± 5.4 µg/mL (≈ 420 µM); in data set [2] (read-out: IC50-hEBs), 81.6 µg/mL (≈ 420 µM). In data set [2] (hEBs, 500 μg/ml, FIG. 3B), the survival entry was “about 10%”.
As to `NC(=O)NO` [Hydroxyurea, hydroxyurea], the “morphology of treated hEBs compared to controls” value in data set [1] is “loss of compactness and a decrease in the size of the EBs”. For the same compound, the IC50 was 2.33 ± 0.2 µg/mL (≈ 30.6 µM) in data set [2] (360 h, read-out: IC50-hEB) and 2.3 µg/mL (≈ 30.2 µM) in data set [2] (read-out: IC50-hEBs).
For `COc1ccc2c(c1)c(CC(=O)O)c(C)n2C(=O)c1ccc(Cl)cc1` [Indomethacin, indomethacin], in data set [1], the “concentration required to elicit a similar morphological response (loss of compactness, decreased EB size)” value came to 100 μg/ml. In addition, the concentration for half-maximal inhibition (IC50) in data set [2] (360 h, read-out: IC50-hEB) came out at 4.49 ± 0.84 µg/mL (≈ 12.5 µM); in data set [2] (read-out: IC50-hEBs), 4.49 µg/mL (≈ 12.5 µM).
In the case of `CC1(C)S[C@@H]2[C@H](NC(=O)Cc3ccccc3)C(=O)N2[C@H]1C(=O)O` [Penicillin G, penicillin G], the “morphology of 5 day old EBs” value in data set [1] (5000 μg/ml (highest dose), day 5, FIG. 2C) is “non-significant darkening”; in data set [1] (up to 1000 μg/ml, day 5, FIG. 2C), “no significant change”. In data set [1], the “concentration required to elicit a similar morphological response (loss of compactness, decreased EB size)” value is 5000 μg/ml. In data set [2] (1000 μg/ml, FIG. 3C), the “cytotoxic effects in hEBs compared to hES cells and HFF” value is on record as “more cytotoxic effects”. Besides, in data set [2] (Table 5), the IC50-hEBs is 1300 µg/mL (≈ 3890 µM). For the same compound, the cell survival entry in data set [2] (hEBs, 1000 μg/ml, CyQUANT, FIG. 4A/4B) was “about 60%”; in data set [2] (hEBs, 5000 μg/ml (highest dose), FIG. 3C), 30%.

These data come from patent US20090220996A1, “In vitro Assay Methods for Classifying Embryotoxicity of Compounds” (RELIANCE LIFE SCIENCES PVT LTD., priority 2007, published 2009).
